12 compounds from patent publication US10202371B2, “Oxazolidin-2-one-pyrimidine derivatives and the use thereof as phosphatidylinositol-3-kinase inhibitors” (Novartis AG, priority 2012, dated 2019) can be followed below.

The target in one assay is human mTOR (GST-mTOR) (Homo sapiens (Human), UniProt P42345). Briefly: Binding assay mTor (Lanthascreen kinase binding assay). Conditions: Tracer-314. An excerpt:
Catalytically active human PI3Kα, PI3Kβ, PI3Kδ, and mTOR were cloned, expressed and purtified as described (Maira S M, Stauffer F, Brueggen J, Furet P, Schnell C, Fritsch C, Brachmann S, Chène P, de Pover A, Schoemaker K, Fabbro D, Gabriel D, Simonen M, Murphy L, Finan P, Sellers W, Garcia-Echeverria C (2008), Mol Cancer Ther. 7:1851-63 and Maira S M, Pecchi S, Brueggen J, Huh K, Schnell C, Fritsch C, Nagel T, Wiesmann M, Brachmann S, Dorsch M, Chène P, Schoemaker K, De Pover A, Menezes D, Fabbro D, Sellers W, Garcia-Echeverria C, Voliva CF (2011), Mol. Cancer Ther. accepted).
TR-FRET assays for protein kinases uses a long-lifetime lanthanide Terbium or Europium chelates as the donor species which overcome interference by compound autofluorescence or light scatter from precipitated compounds, by introducing a delay after excitation by a flashlamp excitation source. Results are often expressed as a ratio of the intensities of the acceptor and donor fluorophores. The ratiometric nature of such a value corrects for differences in assay volumes between wells, as well as corrects for quenching effects due to colored compounds.
Binding Assays are based on the binding and displacement of an Alexa Fluor® 647-labeled, ATP-competitive kinase inhibitors to the kinase of interest. Invitrogen's “Kinase Tracers” have been developed to address a wide range of kinase targets and are based on ATP-competitive kinase inhibitors, making them suitable for detection of any compounds that bind to the ATP site or to an allosteric site altering the conformation of the ATP site. Inhibitors that bind the ATP site include both Type I kinase inhibitors, which bind solely to the ATP site, and Type II inhibitors (e.g., Gleevec®/Imatinib, Sorafenib, BIRB-796), which bind to both the ATP site and a hydrophobic site exposed in the DFG-out (non-active) conformation. […] The sole exception was a substrate-competitive compound, and thus not a true allosteric inhibitor.
In contrast to most fluorescence-based kinase activity assays, LanthaScreen® Eu^3+ Kinase Binding Assays can be read continuously, which facilitates evaluation of compounds with slow binding kinetics. Also, unlike most activity assays, binding assays can be performed using either active or non-activated kinase preparations, which enables characterization of compounds that bind preferentially to non-activated kinases, such as Gleevec®/imatinib and some allosteric inhibitors.
In the Lanthascreen™ kinase binding assay, the donor (Eu^3+-anti-GST antibody) is excited at 340 nm and will transfer its energy to the acceptor (Alexa Fluor® 647-labeled ATP-competitive kinase inhibitor=Tracer-314). The emission from the Tracer-314 (Alexa Fluor® 647 inhibitor) can be monitored with a filter centered at 665 nm because it is located between the emission peaks of the donor, which is measured at 615/620 nm. The binding of both, the Tracer-314 and Eu^3+-anti-GST antibody, to the kinase results in a high degree of FRET from the Eu^3+-donor fluorophore to the Alexa-Fluor® 647-acceptor fluorophore on the Tracer-314. Binding of an inhibitor to the kinase competes for binding with the tracer, resulting in a loss of FRET.
50 nL of compound dilutions were dispensed onto white 384-well small volume polystyrene plate as described in section 2.2. Then 5 μL of GST-mTOR and Europium-anti-GST antibody followed by 5 μL of tracer-314 (final assay volume 10 μL) are incubated at RT. The standard reaction buffer for the Lanthascreen™ kinase binding assay contained 50 mM HEPES pH 7.5, 5 mM MgCl2, 1 mM EGTA, 0.01% Pluronic F-127. Plates are read 60 mins later in a Synergy2 reader using an integration time of 0.2 microseconds and a delay of 0.1 microseconds.
To calculate the emission ratio, the signal emitted at 665 nm from the acceptor (Alexa Fluor® 647-labeled Tracer-314) is divided by the signal emitted at 620 nm from the donor (Eu^3+ anti-GST antibody) […]
In general terms: TR-FRET usually uses a lanthanide donor and a delayed reading to cut background.

A further assay deals with human PI3Kδ (Homo sapiens (Human), UniProt O00329). Briefly: Biochemical assay PI3Kdelta (Adapta TR-FRET). Particulars: read-out: PI3Kd/IC50. From the text: Catalytically active human PI3Kα, PI3Kβ, PI3Kδ, and mTOR were cloned, expressed and purtified as described ([…], Stauffer F, Brueggen J, Furet […], de Pover A, Schoemaker K, Fabbro D, Gabriel D, Simonen M, Murphy […], Garcia-Echeverria C (2008), Mol Cancer Ther. 7:1851-63 and […], Huh […], Schoemaker K, De Pover […], Garcia-Echeverria C, Voliva CF (2011), Mol. Cancer Ther. accepted). The TR-FRET AdaptaTM Universal Kinase Assay Kit was purchased from Invitrogen Corporation (Carlsbad/CA, USA) (Cat. No. PV5099). The kit contains the following reagents: Adapta Eu-anti-ADP Antibody (Europium labeled anti-ADP antibody in HEPES buffered saline, Cat. No. PV5097), Alexa Fluor® 647-labeled ADP tracer (Alexa Fluor® 647-labeled ADP tracer in HEPES buffered saline, Cat. No. PV5098), proprietary TR-FRET dilution buffer pH 7.5 (Cat. No. PV3574). PIK3CD substrate Phosphatidylinositol was obtained from Invitrogen (vesicules consisting of 2 mM PI in 50 mM HEPES pH7.5; Cat. No. PV5371). […] TR-FRET assays for protein kinases use a long-lifetime lanthanide Terbium or Europium chelates as the donor species which overcome interference from compound autofluorescence or light scatter from precipitated compounds, by introducing a delay after excitation by a flashlamp excitation source. Results are often expressed as a ratio of the intensities of the acceptor and donor fluorophores. The ratiometric nature of such a value corrects for differences in assay volumes between wells, as well as corrects for quenching effects due to colored compounds. The AdaptaTM assay can be divided into two phases: a kinase reaction phase and an ADP detection phase. In the kinase reaction phase, all kinase reaction components are added to the well and the reaction is allowed to incubate for a set period of time specific for each kinase. After the reaction, a detection solution of Eu-labeled anti-ADP antibody, Alexa Fluor® 647-labeled ADP tracer, and EDTA (to stop the kinase reaction) are added to the assay well. ADP formed by the kinase reaction will displace the Alexa Fluor® 647-labeled ADP tracer from the antibody, resulting in a decrease in TR-FRET signal. In the presence of an inhibitor, the amount of ADP formed by the kinase reaction is reduced, and the resulting intact antibody-tracer interaction maintains a high TR-FRET signal. In the AdaptaTM assay, the donor (Europium-anti-ADP antibody) is excited at 340 nm and will transfer its energy to the acceptor (Alexa Fluor® 647-labeled ADP tracer). The emission from the Alexa Fluor® 647 can be monitored with a filter centered at 665 nm because it is located between the emission peaks of the donor, which is measured at 615/620 nm. […] Reactions were stopped with 5 μL of a mixture of EDTA containing the Eu-labeled anti-ADP antibody and the Alexa Fluor® 647-labeled ADP tracer in TR-FRET dilution buffer (proprietary to IVG). […] Data are analyzed using Excel fit software or Graphpad Prism. EC50 values were derived by fitting a sigmoidal dose-response curve to a plot of assay readout over inhibitor concentration. All fits were performed with the program XLfit4 (ID Business Solutions, Guildford, UK). […] All fits were performed with the program XLfit4 (ID Business Solutions, Guildford, UK).
Chain of human PI3Kδ (O00329 2-1044): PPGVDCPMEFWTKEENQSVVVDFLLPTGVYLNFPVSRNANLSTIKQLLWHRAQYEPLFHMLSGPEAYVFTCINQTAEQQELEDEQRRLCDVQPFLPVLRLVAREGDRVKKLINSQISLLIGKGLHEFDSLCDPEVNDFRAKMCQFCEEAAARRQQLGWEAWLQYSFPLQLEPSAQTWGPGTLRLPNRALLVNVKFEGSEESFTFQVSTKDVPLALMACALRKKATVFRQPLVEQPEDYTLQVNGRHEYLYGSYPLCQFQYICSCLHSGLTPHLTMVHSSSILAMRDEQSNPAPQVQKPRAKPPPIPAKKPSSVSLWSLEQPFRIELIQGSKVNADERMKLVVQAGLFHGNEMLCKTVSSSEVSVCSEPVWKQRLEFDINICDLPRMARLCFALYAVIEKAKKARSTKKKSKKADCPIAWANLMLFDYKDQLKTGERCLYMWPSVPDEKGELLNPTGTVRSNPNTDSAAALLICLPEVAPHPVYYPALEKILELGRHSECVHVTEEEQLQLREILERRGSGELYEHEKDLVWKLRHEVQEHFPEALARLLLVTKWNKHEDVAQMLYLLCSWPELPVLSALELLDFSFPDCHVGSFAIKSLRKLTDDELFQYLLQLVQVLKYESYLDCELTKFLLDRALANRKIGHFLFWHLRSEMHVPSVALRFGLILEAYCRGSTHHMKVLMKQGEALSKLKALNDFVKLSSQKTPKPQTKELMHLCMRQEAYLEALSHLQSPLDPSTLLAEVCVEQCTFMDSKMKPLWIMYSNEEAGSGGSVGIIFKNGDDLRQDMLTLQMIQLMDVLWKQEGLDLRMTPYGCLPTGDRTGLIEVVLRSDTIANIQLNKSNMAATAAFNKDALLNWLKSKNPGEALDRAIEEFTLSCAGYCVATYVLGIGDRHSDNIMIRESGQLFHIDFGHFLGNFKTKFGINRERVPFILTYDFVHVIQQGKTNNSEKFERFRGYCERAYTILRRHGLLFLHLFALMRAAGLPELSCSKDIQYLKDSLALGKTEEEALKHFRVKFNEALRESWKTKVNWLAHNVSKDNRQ

Take `CC[C@H]1[C@H](c2ccc(OC)cc2)OC(=O)N1c1cc(-c2cnc(N)nc2C(F)(F)F)nc(N2CCOCC2)n1` (relative stereo) [Example 2, (4S*,5S*)-3-(2′-amino-2-morpholino-4′-(trifluoromethyl)-[4,5′-bipyrimidin]-6-yl)-4-ethyl-5-(4-methoxyphenyl)oxazolidin-2-one]: at human mTOR (GST-mTOR), the IC50 is 2800 nM.

Consider `C[C@H]1[C@H](c2nccs2)OC(=O)N1c1cc(-c2cnc(N)nc2C(F)(F)F)nc(N2CCOCC2)n1` [Example 1, (4S,5R)-3-(2′-Amino-2-morpholin-4-yl-4′-trifluoromethyl-[4,5′]bipyrimidinyl-6-yl)-4-methyl-5-thiazol-2-yl-oxazolidin-2-one], for which the IC50 at human mTOR (GST-mTOR) amounted to 251 nM.

As for `COc1ccc([C@@H]2OC(=O)N(c3cc(-c4cnc(N)nc4C(F)(F)F)nc(N4CCOCC4)n3)[C@H]2CO)cc1` [Example 3, (4S,5S)-3-(2′-Amino-2-morpholino-4′-(trifluoromethyl)-[4,5′-bipyrimidin]-6-yl)-4-(hydroxymethyl)-5-(4-methoxyphenyl)oxazolidin-2-one], the IC50 was 4 nM at human PI3Kδ and 850 nM at human mTOR (GST-mTOR).

Turning to `C[C@H]1[C@H](c2ccccc2)OC(=O)N1c1cc(-c2cnc(N)nc2C(F)(F)F)nc(N2CCOCC2)n1` [Example 5], the IC50 at human PI3Kδ amounted to 147 nM; at human mTOR (GST-mTOR) it was 2250 nM.

In the case of `CC[C@H]1[C@H](c2nccs2)OC(=O)N1c1cc(-c2cnc(N)nc2C(F)(F)F)nc(N2CCOCC2)n1` [Example 7], the IC50 was 41 nM on human PI3Kδ and 2700 nM at human mTOR (GST-mTOR).

With `CCC1C(c2cccnc2)OC(=O)N1c1cc(-c2cnc(N)nc2C(F)(F)F)nc(N2CCOCC2)n1` (stereo not drawn) [Example 8], the IC50 at human mTOR (GST-mTOR) stood at 960 nM.

In the case of `CC1C(c2cccnc2)OC(=O)N1c1cc(-c2cnc(N)nc2C(F)(F)F)nc(N2CCOCC2)n1` (stereo not drawn) [Example 9], the IC50 at human PI3Kδ was determined as 10 nM.

As to `Nc1ncc(-c2cc(N3C(=O)O[C@@H](c4ccccc4)[C@@H]3CO)nc(N3CCOCC3)n2)c(C(F)(F)F)n1` [Example 10], the IC50 on human PI3Kδ is 31 nM; at human mTOR (GST-mTOR) it was 1010 nM.

Take `C[C@H]1[C@@H](c2nccs2)OC(=O)N1c1cc(-c2cnc(N)nc2C(F)(F)F)nc(N2CCOCC2)n1` [Example 11]: the IC50 at human mTOR (GST-mTOR) is 870 nM.

On to `COCCOc1ccc([C@@H]2OC(=O)N(c3cc(-c4cnc(N)nc4C(F)(F)F)nc(N4CCOCC4)n3)[C@H]2CO)cc1` [Example 12], for which the IC50 on human PI3Kδ came to 4 nM; on human mTOR (GST-mTOR), 750 nM.

For `Nc1ncc(-c2cc(N3C(=O)O[C@@H](c4ccc(OCCO)cc4)[C@@H]3CO)nc(N3CCOCC3)n2)c(C(F)(F)F)n1` [Example 13], the IC50 was determined as 3 nM on human PI3Kδ and 230 nM on human mTOR (GST-mTOR).

For `Nc1ncc(-c2cc(N3C(=O)O[C@@H](c4ccc(OCCCO)cc4)[C@@H]3CO)nc(N3CCOCC3)n2)c(C(F)(F)F)n1` [Example 14], the IC50 at human mTOR (GST-mTOR) is 490 nM.
